Two compounds from ChEMBL document CHEMBL1147879, “Synthesis of soluble multivalent glycoconjugates that target the Hc region of botulinum neurotoxin A” (Bioorg Med Chem Lett, 2007) can be followed below.

For this experiment, the target named is Synaptosomal-associated protein 25 (Rattus norvegicus) (UniProt P60881). The experiment is described as follows: Inhibition of BoNT/A-mediated SNAP25 cleavage in rat spinal card cells after 24 hrs by Western blot analysis. Type of experiment: cell-based. (In general: A western blot detects proteins with antibodies after separation by electrophoresis.)

Active and inactive are the calls of the source. No cut-off for these calls is given here.

Sequence of Synaptosomal-associated protein 25 (Rattus norvegicus) (P60881 whole entry, looked up): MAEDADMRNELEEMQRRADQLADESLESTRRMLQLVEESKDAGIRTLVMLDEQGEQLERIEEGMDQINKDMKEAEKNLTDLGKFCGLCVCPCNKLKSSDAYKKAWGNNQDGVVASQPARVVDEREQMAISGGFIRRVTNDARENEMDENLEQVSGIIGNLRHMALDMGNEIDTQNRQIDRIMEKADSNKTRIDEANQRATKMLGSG

Turning to `CC(=O)N[C@@H]1[C@@H]([C@@H](C)C(O)CCO)O[C@](SCC(=O)NCCOCCOCCOCCn2cc(CNC(=O)c3cc(NC(=O)CN)cc(C(=O)NCc4cn(CCOCCOCCOCCNC(=O)CS[C@]5(C(=O)O)C[C@H](O)[C@@H](NC(C)=O)[C@H]([C@H](C)C(O)CCO)O5)nn4)c3)nn2)(C(=O)O)C[C@H]1O` (some centres not stated), the result was Active.

For the compound `CC(=O)N[C@@H]1[C@@H]([C@@H](C)C(O)CCO)O[C@](SCC(=O)NCCOCCOCCOCCn2cc(CNC(=O)c3cc(NC(=O)CNC(=O)c4cc(NC(=O)CN)cc(C(=O)NCC(=N)Nc5cc(C(=O)NCc6cn(CCOCCOCCOCCNC(=O)CS[C@@]7(C(=O)O)C[C@@H](O)[C@H](NC(C)=O)[C@@H]([C@@H](C)C(O)CCO)O7)nn6)cc(C(=O)NCc6cn(CCOCCOCCOCCNC(=O)CS[C@@]7(C(=O)O)C[C@@H](O)[C@H](NC(C)=O)[C@@H]([C@@H](C)C(O)CCO)O7)nn6)c5)c4)cc(C(=O)NCc4cn(CCOCCOCCOCCNC(=O)CS[C@]5(C(=O)O)C[C@H](O)[C@@H](NC(C)=O)[C@H]([C@H](C)C(O)CCO)O5)nn4)c3)nn2)(C(=O)O)C[C@H]1O` (some centres not stated), the result was Active.
